According to PMC5945843, “Direct neurotransmitter activation of voltage-gated potassium channels” (Nature Communications, 2018):
Where “and” joins values, the source holds several entries; their conditions need not be identical. Identical values can stand only once. Like-named read-outs stand apart in the source and are kept apart here.

Key:
[1] = tested on: water-injected Xenopus laevis oocytes; assay: TEVC of water-injected oocytes (endogenous currents, EM); format: cell-based
Excerpt: Chemicals were sourced from Sigma. […] […].

KCNA1 (Kv1.1) = KCNA1 (Kv1.1) (Homo sapiens, UniProt Q09470); assay: TEVC in Xenopus oocytes; format: cell-based; conditions: for Slope: Ctrl 6.2 ± 0.4; for Normalized tail current V0.5: Ctrl -29.8 ± 0.69
Excerpt: Chemicals were sourced from Sigma.

[2] = target: KCNQ3* (expression-optimized KCNQ3-A315T mutant) (Homo sapiens, UniProt O43525, A315T); conditions: for Slope: Ctrl 4.5 ± 0.9; for Normalized tail current V0.5: Ctrl -51.4 ± 1.9; for Non-normalized tail current V0.5: Ctrl -47.5 ± 4.4
Excerpt: (§4) cRNA transcripts encoding human KCNQ1, KCNQ2, KCNQ3, KCNQ4, KCNQ5, KCNA1, or KCNE1 were generated by in vitro transcription using the T7 polymerase mMessage mMachine kit (Thermo Fisher Scientific), after vector linearization, from complementary DNA (cDNA) sub-cloned into plasmids incorporating Xenopus laevis β-globin 5′ and 3′ untranslated regions flanking the coding region to enhance translation and cRNA stability. cRNA was quantified by spectrophotometry. […] Defolliculated stage V and VI Xenopus laevis oocytes (Ecocyte Bioscience, Austin, TX) were injected with Kv channel α subunit cRNAs (5–10 ng).
(§5) Oocytes were placed in a small-volume oocyte bath (Warner) and viewed with a dissection microscope. Chemicals were sourced from Sigma. Bath solution was (in mM): 96 NaCl, 4 KCl, 1 MgCl2, 1 CaCl2, 10 HEPES (pH 7.6). […] Valeric acid was stored as a 5 mM stock in Ringer’s solution at 4 °C and diluted to working concentrations each experimental day. β-hydroxybutyric acid was stored at 4 °C as a 480 mM stock in 100% ethanol and diluted to working concentrations each experimental day. All compounds were introduced to the recording bath via gravity perfusion at a constant flow of 1 ml per min for 3 min prior to recording. Pipettes were of 1–2 MΩ resistance when filled with 3 M KCl. Currents were recorded in response to pulses between −80 mV and +40 mV at 20 mV intervals, or a single pulse to +40 mV, from a holding potential of −80 mV, to yield current-voltage relationships, current magnitude, and for quantifying activation rate. Deactivation was recorded at −80 mV after a single activating pulse to +40 mV, from a holding potential of −80 mV. […] TEVC data analysis was performed with Clampfit (Molecular Devices) and Graphpad Prism software (GraphPad, San Diego, CA, USA); values are stated as mean ± SEM. Normalized tail currents were plotted versus prepulse voltage and fitted with a single Boltzmann function:1 g=(A1-A2)/1+expV1/2-V∕VS+A2, where g is the normalized tail conductance, A1 is the initial value at −∞, A2 is the final value at +∞, V1/2 is the half-maximal voltage of activation, and VS the slope factor. Activation and deactivation kinetics were fitted with single exponential functions.

KCNQ1 = KCNQ1 (Homo sapiens, UniProt P51787); assay: Two-electrode voltage clamp (TEVC) in Xenopus oocytes
Excerpt: as §4
Oocytes were placed in a small-volume oocyte bath (Warner) and viewed with a dissection microscope. Chemicals were sourced from Sigma. Bath solution was (in mM): 96 NaCl, 4 KCl, 1 MgCl2, 1 CaCl2, 10 HEPES (pH 7.6). […] Valeric acid was stored as a 5 mM stock in Ringer’s solution at 4 °C and diluted to working concentrations each experimental day. β-hydroxybutyric acid was stored at 4 °C as a 480 mM stock in 100% ethanol and diluted to working concentrations each experimental day. All compounds were introduced to the recording bath via gravity perfusion at a constant flow of 1 ml per min for 3 min prior to recording. Pipettes were of 1–2 MΩ resistance when filled with 3 M KCl. Currents were recorded in response to pulses between −80 mV and +40 mV at 20 mV intervals, or a single pulse to +40 mV, from a holding potential of −80 mV, to yield current-voltage relationships, current magnitude, and for quantifying activation rate. Deactivation was recorded at −80 mV after a single activating pulse to +40 mV, from a holding potential of −80 mV. For wortmannin studies, oocytes were incubated in 30 µM wortmannin for 3 h at 16 °C prior to recording. TEVC data analysis was performed with Clampfit (Molecular Devices) and Graphpad Prism software (GraphPad, San Diego, CA, USA); values are stated as mean ± SEM. […]

KCNQ1-KCNE1 = KCNQ1-KCNE1 (Homo sapiens, UniProt P51787); assay: TEVC and resting membrane potential in Xenopus oocytes; format: cell-based
Excerpt: as §4, §5

KCNQ4 = KCNQ4 (Homo sapiens, UniProt P56696); assay: TEVC in Xenopus oocytes; format: cell-based; conditions: for Non-normalized tail current V0.5: Ctrl 8.6 ± 4.3; for Normalized tail current V0.5: Ctrl -8.7 ± 0.8
Excerpt: as §4, §5

KCNQ5 = KCNQ5 (Homo sapiens, UniProt Q9NR82); assay: TEVC in Xenopus oocytes; format: cell-based; conditions: for Slope: Ctrl 9.6 ± 1.9; for Normalized tail current V0.5: Ctrl -41.7 ± 1.5; for Non-normalized tail current V0.5: Ctrl -[…]
Excerpt: as §4, §5

[3] = tested on: native M-current in mouse DRG neurons; assay: Perforated patch-clamp of dorsal root ganglion neurons; format: cell-based; conditions: 100 µM GABA
Protocol: Adult male mice were purchased from Jackson Labs and then housed and used according to a protocol approved by the Institutional Animal Care and Use Committee of University of California, Irvine, and consistent with recommendations in the NIH Guide for the Care and Use of Laboratory Animals (8th edition, 2011). […]. DRG neurons were then cultured on poly-L-lysine and laminin-coated plastic coverslips in RPMI 1640 with 10% horse serum and 1% penicillin/streptomycin at 37 °C for 1–4 days before electrophysiological recordings were performed using perforated patch clamp. Amphotericin B (VWR, Radnor, PA) was dissolved in DMSO at 5 mg/ml (stock solution), then diluted to 150–200 µg/ml in intracellular solution and sonicated with a probe sonicator on ice for 5 s, kept at room temperature in the dark, and replaced every hour with a fresh solution from the stock. The working amphotericin solution was backfilled into borosilicate glass electrodes (3–5 MΩ) previously tip-filled to ~0.5 mm with intracellular solution lacking amphotericin B, immediately prior to sealing onto individual neurons. After whole-cell configuration was achieved and capacitance stabilized, whole-cell recordings were performed essentially as described in the prior paragraph, with the following differences: neurons were held at −20 mV to inactivate other channels before the test pulses; offline leak subtraction was performed.

[4] = target: T1, KCNQ2/3 channels expressed in CHO cells (Mus musculus, UniProt Q8K3F6+Q9Z351); assay: Whole-cell patch clamp of transfected CHO cells; format: cell-based; conditions: 100 µM GABA
T1 construct: expressed in transfected cells; host or cells: CHO cells (ATCC), transient transfection with TransIT-LT1
Protocol: (§1) CHO cells (ATCC) were seeded on poly-L-lysine-treated glass coverslips in 24-well plates and transfected the next day using 0.5 µg each of mouse KCNQ2 and KCNQ3 cDNA in a CMV vector per well in normal media (DMEM with 10% FBS and 1% penicillin/streptomycin). The transfection reagent used was TransIT-LT1 (Mirus Bio LLC, Madison, WI, USA) and cells were patched 48–72 h post transfection. […] Media was replenished every 3 days and cultures were split once a week. […] Cell culture plastic ware and reagents were purchased from VWR and Fisher Scientific unless otherwise stated.
(§2) For both CHO cells and PC12 cells, currents were recorded in whole-cell mode at room temperature (22–25 °C) with 3–6 MΩ borosilicate glass electrodes backfilled with solution containing (in mM): 90 K acetate, 20 KCl, 40 HEPES, 3 MgCl2, 1 CaCl2, 3 EGTA-KOH, 2 MgATP; pH 7.2.
(§3) The pClamp8 (Molecular Devices) software package was used for data acquisition and Clampfit was used for analysis, along with Graphpad Prism 7.0 (Graphpad).

[5] = tested on: native M-current in PC12 cells; assay: Whole-cell patch clamp of NGF-differentiated PC12 cells; format: cell-based, rat; conditions: 100 µM GABA + 100 µM picrotoxin + 10 µM CGP55845
Protocol: as §1, §2, §3

[6] = target: homomeric wild-type human KCNQ3 (Homo sapiens, UniProt O43525); assay: 3H-GABA radioligand binding (single concentration, cold competition, saturation) in Xenopus oocytes; conditions: cold (unlabeled) GABA 1 mM
Protocol: Defolliculated stage V and VI Xenopus laevis oocytes (Ecocyte Bioscience, Austin, TX) were injected with Kv channel α subunit cRNAs (5–10 ng).
Oocytes were then washed four times in 16 °C ND96, then transferred to individual wells in a 96-well plate and lysed in 0.2% SDS in ND96. Each oocyte lysate was transferred to a scintillation vial containing 5 ml cytoscint scintillation cocktail fluid (MP Biomedicals, Santa Ana, CA). Vials were capped, shaken, and then allowed to sit at room temperature for at least 30 min before scintillation counting in a Beckmann Coulter LS6500 liquid scintillation counter. […] Oocytes were next incubated in 1 ml per group homogenization buffer (in mM, 150 NaCl, 2 CaCl2, 20 Tris, 2% Nonidet P-40) with 2% protease inhibitor cocktail (Pierce) and then lysed with a 20 ml pipette tip, vortexed, centrifuged at 4000 r.p.m. (10 min, 4 °C). The supernatant was mixed in Eppendorf tubes end-over-end overnight at 4 °C with high-capacity streptavidin agarose beads (Thermo Fisher, Huntington Beach, CA) (20 µl per group).
For the binding competition assay, the control group was treated as before. […] Each oocyte lysate was transferred to a scintillation vial containing 5 ml cytoscint scintillation cocktail fluid (MP Biomedicals). […] Bmax and Kd values were calculated using automated nonlinear regression analysis in GraphPad prism.

[7] = especially at subthreshold potentials

Chain of KCNA1 (Kv1.1) (Q09470 whole entry): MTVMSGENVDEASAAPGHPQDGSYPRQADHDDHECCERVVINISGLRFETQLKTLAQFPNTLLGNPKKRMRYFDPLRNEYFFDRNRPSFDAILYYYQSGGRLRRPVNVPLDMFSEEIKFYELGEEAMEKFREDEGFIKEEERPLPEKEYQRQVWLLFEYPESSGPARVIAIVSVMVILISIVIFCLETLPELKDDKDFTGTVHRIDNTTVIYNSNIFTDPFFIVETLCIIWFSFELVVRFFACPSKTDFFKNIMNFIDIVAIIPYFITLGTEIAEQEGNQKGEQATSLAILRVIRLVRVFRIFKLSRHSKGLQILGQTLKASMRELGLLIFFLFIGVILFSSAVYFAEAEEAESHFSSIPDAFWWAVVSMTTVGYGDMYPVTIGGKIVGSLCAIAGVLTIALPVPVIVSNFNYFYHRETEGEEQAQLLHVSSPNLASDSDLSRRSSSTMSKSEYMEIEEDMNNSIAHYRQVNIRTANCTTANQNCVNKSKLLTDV
Chain of homomeric wild-type human KCNQ3 (O43525 whole entry): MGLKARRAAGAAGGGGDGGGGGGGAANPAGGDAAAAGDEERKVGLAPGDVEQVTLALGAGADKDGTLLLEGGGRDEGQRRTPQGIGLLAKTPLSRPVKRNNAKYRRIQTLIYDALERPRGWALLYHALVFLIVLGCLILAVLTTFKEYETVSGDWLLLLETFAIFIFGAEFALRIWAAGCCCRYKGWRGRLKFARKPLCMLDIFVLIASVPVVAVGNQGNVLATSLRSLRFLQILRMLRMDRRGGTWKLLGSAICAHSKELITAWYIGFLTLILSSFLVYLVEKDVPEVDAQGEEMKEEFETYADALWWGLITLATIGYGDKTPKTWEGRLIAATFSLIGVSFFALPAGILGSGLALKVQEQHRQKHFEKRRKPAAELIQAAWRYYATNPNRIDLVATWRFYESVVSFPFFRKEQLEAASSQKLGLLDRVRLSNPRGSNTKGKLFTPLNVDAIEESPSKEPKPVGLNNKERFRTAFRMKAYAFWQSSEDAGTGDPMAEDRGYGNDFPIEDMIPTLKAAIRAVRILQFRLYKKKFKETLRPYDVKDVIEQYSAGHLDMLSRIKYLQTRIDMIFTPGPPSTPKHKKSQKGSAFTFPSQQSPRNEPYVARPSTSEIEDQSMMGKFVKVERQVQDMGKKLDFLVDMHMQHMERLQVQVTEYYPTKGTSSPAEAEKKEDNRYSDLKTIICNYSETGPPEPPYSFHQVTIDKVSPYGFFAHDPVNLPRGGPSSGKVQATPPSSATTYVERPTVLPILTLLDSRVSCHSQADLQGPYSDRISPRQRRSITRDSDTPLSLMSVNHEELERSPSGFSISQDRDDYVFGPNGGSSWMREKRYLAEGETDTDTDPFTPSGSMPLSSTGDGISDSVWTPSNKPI

Structure (SMILES): NCCCC(=O)O [GABA, γ-aminobutyric acid]
- effect on endogenous currents or resting membrane potential ([1]; GABA 100 µM): no effect
- effect on water-injected oocytes ([1]; GABA 1 mM): neither did increasing GABA to 1 mM produce any noticeable effects
- Slope (KCNA1 (Kv1.1); 0.1 µM GABA): 6.4 ± 0.5 mV
- Normalized tail current V0.5 (KCNA1 (Kv1.1); 0.1 µM GABA): -29.3 ± 0.88 mV
- Slope (KCNA1 (Kv1.1); 1 µM GABA): 6.1 ± 0.5 mV
- Normalized tail current V0.5 (KCNA1 (Kv1.1); 1 µM GABA): -28.4 ± 0.89 mV
- Slope (KCNA1 (Kv1.1); 10 µM GABA): 6.1 ± 0.5 mV
- Normalized tail current V0.5 (KCNA1 (Kv1.1); 10 µM GABA): -27.6 ± 0.82 mV
- Slope (KCNA1 (Kv1.1); 100 µM GABA): 6.2 ± 0.4 mV
- Normalized tail current V0.5 (KCNA1 (Kv1.1); 100 µM GABA): -27.2 ± 0.67 mV
- Slope (KCNA1 (Kv1.1); 1 mM GABA): 6.4 ± 0.6 mV
- Normalized tail current V0.5 (KCNA1 (Kv1.1); 1 mM GABA): -27.3 ± 0.93 mV
- effect on peak current or normalized tail current (KCNA1 (Kv1.1); GABA 1 mM): no effect
- efficacy of channel activation, KCNQ3* compared to KCNQ5 [2]: more than threefold greater
- Slope ([2]; 0.1 µM GABA): 4.6 ± 0.9 mV
- Normalized tail current V0.5 ([2]; 0.1 µM GABA): -54.2 ± 1.5 mV
- Slope ([2]; 1 µM GABA): 4.3 ± 0.8 mV
- Slope ([2]; 10 µM GABA): 4.3 ± 3.5 mV
- Non-normalized tail current V0.5 ([2]; 10 µM GABA): -58.4 ± 2.7 mV
- Normalized tail current V0.5 ([2]; 10 µM GABA): -58.9 ± 1.0 mV
- Slope ([2]; 100 µM GABA): 4.8 ± 3.0 mV
- Non-normalized tail current V0.5 ([2]; 100 µM GABA): -59.4 ± 2.8 mV
- Normalized tail current V0.5 ([2]; 100 µM GABA): -59.8 ± 0.9 mV
- Slope ([2]; 1 mM GABA): 4.7 ± 3.3 mV
- Non-normalized tail current V0.5 ([2]; 1 mM GABA): -59.3 ± 2.5 mV
- Normalized tail current V0.5 ([2]; 1 mM GABA): -59.6 ± 0.9 mV
- effect on channel [2, 7]: activates
- GABA sensitivity of channel activity (KCNQ1): relatively GABA-insensitive
- Non-normalized tail current V0.5 (KCNQ1; 100 µM GABA, Ctrl -30.1 ± 2.2): -32.6 ± 1.9 mV
- Normalized tail current V0.5 (KCNQ1; 100 µM GABA, Ctrl -34.1 ± 0.9): -34.2 ± 0.8 mV
- Normalized tail current V0.5 (KCNQ1-KCNE1; 100 µM GABA, Ctrl 6.1 ± 0.8): 3.3 ± 1.2 mV
- Non-normalized tail current V0.5 (KCNQ1-KCNE1; 100 µM GABA, Ctrl 6.3 ± 2.6): 3.1 ± 2.7 mV
- Slope (KCNQ1-KCNE1; 100 µM GABA, Ctrl 14 ± 0.7): 13.2 ± 0.9 mV
- effect on KCNQ1-KCNE1 activity (KCNQ1-KCNE1; GABA 100 µM): no effect
- effect on resting membrane potential (EM) (KCNQ1-KCNE1; GABA 100 µM, unclamped oocytes): does not alter
- GABA sensitivity of channel activity (KCNQ4): relatively GABA-insensitive
- Non-normalized tail current V0.5 (KCNQ4; 0.1 µM GABA): -8.8 ± 4.3 mV
- Normalized tail current V0.5 (KCNQ4; 0.1 µM GABA): -9.6 ± 0.7 mV
- Non-normalized tail current V0.5 (KCNQ4; 1 µM GABA): -9.0 ± 4.3 mV
- Normalized tail current V0.5 (KCNQ4; 1 µM GABA): -9.6 ± 0.8 mV
- Non-normalized tail current V0.5 (KCNQ4; 10 µM GABA): -9.3 ± 3.7 mV
- Normalized tail current V0.5 (KCNQ4; 10 µM GABA): -9.8 ± 0.8 mV
- Non-normalized tail current V0.5 (KCNQ4; 100 µM GABA): -9.0 ± 3.8 mV
- Normalized tail current V0.5 (KCNQ4; 100 µM GABA): -10.3 ± 0.8 mV
- Non-normalized tail current V0.5 (KCNQ4; 1 mM GABA): -8.4 ± 3.4 mV
- Normalized tail current V0.5 (KCNQ4; 1 mM GABA): -8.8 ± 0.8 mV
- Slope (KCNQ5; 0.001 µM GABA): 9.4 ± 4.3 mV
- Normalized tail current V0.5 (KCNQ5; 0.001 µM GABA): -41.9 ± 2.9 mV
- Non-normalized tail current V0.5 (KCNQ5; 0.001 µM GABA): -41.8 ± 2.8 mV
- Slope (KCNQ5; 0.01 µM GABA): 7.6 ± 2.4 mV
- Normalized tail current V0.5 (KCNQ5; 0.01 µM GABA): -50.1 ± 2.9 mV
- Non-normalized tail current V0.5 (KCNQ5; 0.01 µM GABA): -49.5 ± 2.5 mV
- Slope (KCNQ5; 0.1 µM GABA): 7.4 ± 1.2 mV
- Normalized tail current V0.5 (KCNQ5; 0.1 µM GABA): -53.9 ± 1.7 mV
- Non-normalized tail current V0.5 (KCNQ5; 0.1 µM GABA): -51.3 ± 2.1 mV
- Slope (KCNQ5; 1 µM GABA): 7.6 ± 1.2 mV
- Normalized tail current V0.5 (KCNQ5; 1 µM GABA): -54.2 ± 1.6 mV
- Non-normalized tail current V0.5 (KCNQ5; 1 µM GABA): -51.2 ± 2.6 mV
- Slope (KCNQ5; 10 µM GABA): 8.4 ± 1.4 mV
- Normalized tail current V0.5 (KCNQ5; 10 µM GABA): -57.0 ± 1.8 mV
- Non-normalized tail current V0.5 (KCNQ5; 10 µM GABA): -54.5 ± 2.3 mV
- Slope (KCNQ5; 100 µM GABA): 8.5 ± 1.5 mV
- Normalized tail current V0.5 (KCNQ5; 100 µM GABA): -57.4 ± 1.8 mV
- Non-normalized tail current V0.5 (KCNQ5; 100 µM GABA): -54.5 ± 2.7 mV
- Slope (KCNQ5; 1 mM GABA): 8.8 ± 1.5 mV
- Normalized tail current V0.5 (KCNQ5; 1 mM GABA): -58.3 ± 1.8 mV
- Non-normalized tail current V0.5 (KCNQ5; 1 mM GABA): -56.4 ± 2.4 mV
- higher GABA sensitivity of KCNQ5 than KCNQ3* (KCNQ5; EC50 ratio at −60 mV): 17 fold
- EC50 (KCNQ5; at −60 mV): 60 ± 10 nM
- effect on channel (KCNQ5; [7]): activates
- decrease of deactivating current at −60 mV [3]: ~ 25%
- mean GABA-dependent change in current ([3]; at −20 mV): no mean change
- mean GABA-dependent current increase ([3]; at −60 mV, picrotoxin + CGP55845 present): threefold
- Slope ([4]; Ctrl 14.3 ± 1.6): 16.2 ± 3.0 mV
- Normalized tail current V0.5 ([4]; Ctrl -2.9 ± 2.7): -17.5 ± 3.7 mV and −17.5 mV
- Slope ([5]; blockers alone 17.4 ± 3.0): 16.0 ± 3.2 mV
- Normalized tail current V0.5 ([5]; blockers alone -7.1 ± 7.6): -20.6 ± 4.9 mV
- competition of 3H-GABA binding [6]: outcompeted
